Test results taken from ChEMBL document CHEMBL1201862, “PubChem BioAssay data set” (2004).
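Five concentrations, 48 hours, 96-well plates. GI50 = concentration required for 50% inhibition of growth.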 The source made the active and inactive calls. Cut-off read from the data, not from the text of the source: active = GI50 up to about 1.1 µM and inactive = higher.

Experiments:
Test in all cases: DTP human tumour cell line panel, 48 h
HT-29 = system: HT-29
SNB-19 = system: SNB-19
SF-539 = system: SF-539
A549 = system: A549
A498 = system: A498
K562 = system: K562
HOP-92 = system: HOP-92
SW-620 = system: SW-620
CCRF-CEM = system: CCRF-CEM
NCI-H460 = system: NCI-H460
OVCAR-5 = system: OVCAR-5
NCI-H226 = system: NCI-H226
CAKI-1 = system: CAKI-1
SK-MEL-28 = system: SK-MEL-28
UACC-62 = system: UACC-62
SK-MEL-2 = system: SK-MEL-2
RPMI-8226 = system: RPMI-8226

Measured: GI50

O=c1/c(=C/c2c(O)ccc3ccccc23)sc2nc3ccccc3n12
inactive: HT-29 > 100 µM | SNB-19 > 100 µM | SF-539 > 100 µM | A549 > 100 µM | A498 > 100 µM | K562 > 100 µM | HOP-92 > 100 µM | SW-620 > 100 µM | CCRF-CEM > 100 µM | NCI-H460 > 100 µM | OVCAR-5 > 100 µM | NCI-H226 > 100 µM | CAKI-1 > 100 µM | SK-MEL-28 > 100 µM | UACC-62 > 100 µM | SK-MEL-2 > 100 µM

O=[PH](O)c1ccsc1
inactive: HT-29 55 µM | SF-539 > 100 µM | A549 > 100 µM | A498 > 100 µM | K562 > 100 µM | HOP-92 86.5 µM | SW-620 > 100 µM | CCRF-CEM > 100 µM | NCI-H460 > 100 µM | CAKI-1 52.1 µM | SK-MEL-28 > 100 µM | UACC-62 > 100 µM | RPMI-8226 > 100 µM

O=C1CCC2CCc3cccc4oc1c2c34 (centres undefined)
inactive: HT-29 > 100 µM | SNB-19 > 100 µM | SF-539 > 100 µM | A549 > 100 µM | A498 > 100 µM | K562 > 100 µM | HOP-92 75.5 µM | SW-620 > 100 µM | CCRF-CEM > 100 µM | NCI-H460 > 100 µM | CAKI-1 > 100 µM | SK-MEL-28 > 100 µM | UACC-62 > 100 µM | RPMI-8226 > 100 µM

C=C1C(C(=O)O)C1C(=O)O (centres undefined)
inactive: HT-29 > 100 µM | SNB-19 > 100 µM | SF-539 > 100 µM | A549 > 100 µM | A498 > 100 µM | K562 > 100 µM | HOP-92 > 100 µM | SW-620 > 100 µM | CCRF-CEM > 100 µM | NCI-H460 > 100 µM | OVCAR-5 > 100 µM | NCI-H226 21.1 µM | CAKI-1 > 100 µM | SK-MEL-28 > 100 µM | UACC-62 > 100 µM | RPMI-8226 > 100 µM | SK-MEL-2 > 100 µM

O=C1NCCS(=O)(=O)N2CCC[C@@H]12
inactive: HT-29 > 100 µM | SNB-19 > 100 µM | SF-539 > 100 µM | A549 > 100 µM | A498 > 100 µM | K562 > 100 µM | HOP-92 > 100 µM | SW-620 > 100 µM | CCRF-CEM > 100 µM | NCI-H460 > 100 µM | OVCAR-5 > 100 µM | NCI-H226 60.3 µM | CAKI-1 > 100 µM | SK-MEL-28 > 100 µM | UACC-62 > 100 µM | RPMI-8226 > 100 µM

COCCNC(=O)C1C(=O)C(=O)N(CCOC)C1=O (centres undefined)
inactive: HT-29 > 100 µM | SNB-19 > 100 µM | SF-539 > 100 µM | A549 > 100 µM | A498 > 100 µM | K562 > 100 µM | HOP-92 > 100 µM | SW-620 > 100 µM | CCRF-CEM > 100 µM | OVCAR-5 > 100 µM | NCI-H226 > 100 µM | CAKI-1 > 100 µM | SK-MEL-28 > 100 µM | UACC-62 > 100 µM | SK-MEL-2 > 100 µM

CC(C)CC(NC(=O)OC(C)(C)C)C(=O)Nc1ccc(Nc2nc(F)nc(-c3c4ccccc4c4n3CCS4)n2)cc1 (centres undefined)
inactive: HT-29 19.2 µM | SNB-19 18.2 µM | SF-539 20.6 µM | A549 48.4 µM | A498 26.2 µM | K562 26.8 µM | HOP-92 18.8 µM | SW-620 16.1 µM | CCRF-CEM 3.65 µM | NCI-H460 14.8 µM | OVCAR-5 22.4 µM | CAKI-1 18.2 µM | SK-MEL-28 23.5 µM | UACC-62 17.2 µM | RPMI-8226 24.4 µM | SK-MEL-2 18.2 µM

O=C(Nc1ccc(Cl)cc1)c1cccc([N+](=O)[O-])c1O
inactive: HT-29 4.25 µM | SNB-19 2.92 µM | SF-539 4.18 µM | A549 3.65 µM | A498 1.95 µM | K562 2.58 µM | HOP-92 1.61 µM | SW-620 4.81 µM | CCRF-CEM 2.06 µM | NCI-H460 2.1 µM | OVCAR-5 12 µM | NCI-H226 2.33 µM | CAKI-1 3.19 µM | SK-MEL-28 4.99 µM | UACC-62 1.85 µM | RPMI-8226 1.6 µM | SK-MEL-2 2.02 µM

N#CC(C(=O)CCC(=O)Nc1ccc(Cl)c(Cl)c1)c1ccccc1 (centres undefined)
inactive: HT-29 > 100 µM | SNB-19 > 100 µM | SF-539 > 100 µM | A549 > 100 µM | A498 > 100 µM | K562 > 100 µM | HOP-92 > 100 µM | SW-620 > 100 µM | OVCAR-5 > 100 µM | NCI-H226 > 100 µM | CAKI-1 > 100 µM | SK-MEL-28 > 100 µM | UACC-62 > 100 µM | RPMI-8226 > 100 µM | SK-MEL-2 > 100 µM
